Results published in patent US20100056516A1 (priority 2006, published 2010).
Where two headings read alike, the source gives them in different places.

What was measured:
HeLa P4-2 cell line = conditions: human
Excerpt: The HeLa P4-2 cell line used in the single cycle HIV infectivity Assay B of Example 270 was also used to determine compound cytotoxicity in the absence of viral infection.

HIV integrase = HIV integrase (Human immunodeficiency virus type 1 group M subtype B, UniProt P04585); test: integrase strand transfer assay (STA); assay type: biochemical
[1] = target: HIV-1 reverse transcriptase (RNase H) (Human immunodeficiency virus type 1 group M subtype B, UniProt P04585); test: ASH assay: RNase H mediated RNA cleavage (ECL format, BioVeris M384); assay type: biochemical
Method: Potency of a substance as an RNase H inhibitors can be determined by measuring its ability prevent RNase H catalyzed cleavage of the RNA strand in a RNA/DNA hybrid duplex substrate. RNase H activity is measured using a substrate generated by annealing the oligoribo-nucleotide 5′-rCrCrUrCrUrCrArArArArArCrArGrGrArGrCrArGrArArArGrArCrArArG (SEQ ID NO:1) to the oligodeoxyribonucleotide 5′-Biotin-[…] (SEQ ID NO:2). […] (SEQ ID NO:3). The resulting double-stranded duplex DNA product is quantitated in an ALPHA screen format using [streptavidin- and anti-fluorescein-coated beads (Packard Bioscience) following the manufacturer's guidelines and reading on a Fusion AlphaScreen instrument. Alternatively, the released 5′-Biotinylated DNA is annealed to a complementary oligodeoxyribonucleotide: 5′-ruthenium-[…] (SEQ ID NO:3). The resulting double-stranded duplex DNA product is quantitated in an ECL screen format using Dynabeads M280 coated with streptavidin (BioVeris Corporation) following the manufacturer's guidelines and reading on a BioVeris M384 Analyzer.

HXB2 virus = test: microbe, parasite or virus in culture; assay type: cell-based, HIV
Method in brief: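 HXB2 virus used to infect HeLa P4-2 cells in a single-cycle format; inhibition of acute infection is measured.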

[2] = IC50 in the STA assay, integrase strand transfer
[3] = STA (IC50, μM), integrase strand-transfer assay, Example 269
[4] = Human immunodeficiency virus 1, HXB2, HeLaP4-2, read-out: SCIA-B (IC50, μM)
[5] = Human immunodeficiency virus 1, HXB2, HeLaP4-2, read-out: antiviral IC50 (SCIA-B)
[6] = integrase strand transfer, read-out: IC50 in the STA assay
[7] = integrase strand-transfer assay, Example 269, read-out: STA (IC50)
[8] = RNase H mediated RNA cleavage assay, Example 269, read-out: ASH (IC50)

SMILES | Cytotoxicity (LD50, μM) (HeLa P4-2 cell line) | IC50 (HIV integrase; [2]) | IC50 (HIV integrase; [3]) | IC50 [1] | IC50 (HXB2 virus; [4]) | IC50 (HXB2 virus; [5]) | IC50 (HIV integrase; [6]) | IC50 (HIV integrase; [7]) | IC50 [1, 8]
CN1CCN(Cc2cccc(CNc3cc(=O)n(O)c4ncccc34)c2)CC1 [Example 150, 1-hydroxy-4-({3-[(4-methyl-1-piperazinyl)methyl]benzyl}amino)-1,8-naphthyridin-2(1H-one)] | 14 µM | < 50 µM | 1.7 µM | 0.15 µM | 0.07 µM | < 100 µM | – | – | –
O=c1cc(NCc2cccc(CN3CCOCC3)c2)c2cccnc2n1O [Example 151, 1-hydroxy-4-{[3-(4-morpholinylmethyl)benzyl]amino}-1,8-naphthyridin-2(1H-one)] | 15 µM | < 50 µM | 0.23 µM | 0.16 µM | 0.13 µM | < 100 µM | – | – | –
O=c1cc(NC2CCN(c3ccccc3)CC2)c2cccnc2n1O [Example 154, 1-hydroxy-4-[(1-phenyl-4-piperidinyl)amino]-1,8-naphthyridin-2(1H-one)] | 7.2 µM | < 50 µM | 1.7 µM | 0.2 µM | 0.27 µM | < 100 µM | – | – | –
CN(C)CCC(Nc1cc(=O)n(O)c2ncccc12)c1ccccc1 (stereo not drawn) [Example 158, 4-{[3-(dimethylamino)-1-phenylpropyl]amino}-10hydroxy-1,8-naphthyridin-2(1H-one)] | 16 µM | < 50 µM | 6.5 µM | 0.36 µM | 0.24 µM | < 100 µM | – | – | –
NCc1ccccc1CNc1cc(=O)n(O)c2ncccc12 [Example 163, 4-{[2-(aminomethyl)benzyl]amino}-1-hydroxy-1,8-naphthyridin-2 (1H-one)] | 50 µM | > 50 µM | > 50 µM | 0.18 µM | 0.14 µM | < 100 µM | – | – | –
NCc1cccc(-c2cc(=O)n(O)c3ncccc23)c1 [Example 172, 4-[3-(aminomethyl)phenyl]-1-hydroxy-1,8-naphthyridin-2(1H)-one] | 5.5 µM | < 50 µM | 0.22 µM | 0.14 µM | 0.26 µM | < 100 µM | – | – | –
CCOC(=O)c1c(O)c2c(-c3cccc(CN(C)C)c3)ccnc2n(O)c1=O [Example 230, ethyl 5-{3-[(dimethylamino)methyl]phenyl}-1,4-dihydroxy-2-oxo-1,2-dihydro-1,8-naphthyridine-3-carboxylate] | >100 µM | – | – | – | 0.77 µM | < 100 µM | < 50 µM | 2.3 µM | 0.11 µM
NCc1cccc(-c2cccc(Cc3cc(=O)n(O)c4ncccc34)c2)c1 [Example 231, 4-{[3′-(aminomethyl)biphenyl-3-yl]methyl}-1-hydroxy-1,8-naphthyridin-2(1 H)-one] | 10 µM | – | – | – | 0.29 µM | < 100 µM | < 50 µM | 1.1 µM | 0.34 µM
NCc1ccc(-c2ccc(Cc3cc(=O)n(O)c4ncccc34)cc2)cc1 [Example 235, 4-{[4′-(aminomethyl)biphenyl-4-yl]methyl}-1-hydroxy-1,8-naphthyridin-2(1H)-one] | 7.8 µM | > 50 µM | > 50 µM | 0.046 µM | 0.13 µM | < 100 µM | – | – | –
O=c1cc(Cc2ccc(CCc3ccc(F)cc3F)cc2)c2cccnc2n1O [Example 236, 4-{4-[2-(2,4-difluorophenyl)ethyl]benzyl}-1-hydroxy-1,8-naphthyridin-2(1H)-one] | 21 µM | < 50 µM | 0.05 µM | 0.12 µM | 0.26 µM | < 100 µM | – | – | –
CCOC(=O)c1ccnc2c1c(-c1ccc(-c3ccc(CN)cc3)cc1)cc(=O)n2O [Example 241, Ethyl 5-[4′-(aminomethyl)biphenyl-4-yl]-8-hydroxy-7-oxo-7,8-dihydro-1,8-naphthyridine-4-carboxylate] | 3.8 µM | – | – | – | 0.32 µM | < 100 µM | < 50 µM | 6.2 µM | 0.29 µM
NCc1ccc(-c2ccc(-c3c(-c4ccccc4)c(=O)n(O)c4ncc(F)cc34)cc2)cc1 [Example 242, 4-[4′-(aminomethyl)biphenyl-4-yl]-6-fluoro-1-hydroxy-3-phenyl-1,8-naphthyridin-2-(1H)-one] | 310 µM | < 50 µM | 7.4 µM | 0.18 µM | 0.25 µM | < 100 µM | – | – | –
O=c1cc(N2CCc3ccc(-c4cccnc4)cc3C2)c2cccnc2n1O [Example 255, 1-hydroxy-4-(7-pyridin-3-yl-3,4-dihydroisoquino1in-2(1H)-yl)-1,8-naphthyridin-2(1H)-one] | 5.1 µM | < 50 µM | 1.8 µM | 0.12 µM | 0.17 µM | < 100 µM | – | – | –
NCc1ccc(-c2ccc3c(c2)CN(c2cc(=O)n(O)c4ncccc24)C3)cc1 [Example 257, 4-{5-[4-(aminomethyl)phenyl]-1,3-dihydro-2H-isoindol-2-yl}-1-hydroxy-1,8-naphthyridin-2(1H)-one] | 49 µM | < 50 µM | 46 µM | 0.033 µM | 0.35 µM | < 100 µM | – | – | –
